A value given as a limit tells only on which side of the number the result lay.

The assay addresses T1, Glucocorticoid Receptor (Homo sapiens, UniProt P04150).
T1 construct: expressed in transfected cells
T1 sequence (P04150 524-758 limits assumed): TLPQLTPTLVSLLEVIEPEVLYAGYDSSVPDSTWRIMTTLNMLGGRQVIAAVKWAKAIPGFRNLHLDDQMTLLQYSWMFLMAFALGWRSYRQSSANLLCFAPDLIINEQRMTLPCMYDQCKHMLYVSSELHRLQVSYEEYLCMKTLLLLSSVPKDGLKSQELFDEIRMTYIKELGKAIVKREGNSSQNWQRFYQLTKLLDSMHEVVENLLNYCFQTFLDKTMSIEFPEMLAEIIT
In words: Agonistic mode of action on the glucocorticoid receptor (CHO-Gal4/GR luciferase reporter cell line). The class given is cell-based. The following applies: CHO-Gal4/GR luciferase reporter cells; observed in the agonistic assay or the antagonistic assay (mode not given); read-out: IC50 or EC50 range. A digest of the protocol: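 CHO cells stably expressing GAL4 DBD–GR ligand-binding domain fusion with GAL4-UAS firefly luciferase reporter, seeded 24 h, then treated in Opti-MEM with 8 half-log concentrations from 10 μM to 0.003 μM (0.5% DMSO), quadruplicate. Luminescence read on FLIPR after lysis with Triton/luciferin; EC50 calculated.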
On the technique in general: A reporter such as luciferase makes a cellular process visible.
`CNc1c(-c2cccc3c2ccn3C2CC2)cc(F)c2c1-n1c(C)nnc1C(C)(C)N2` [Example 481, 8-(1-cyclopropyl-1H-indol-4-yl)-6-fluoro-N,1,4,4-tetramethyl-4,5-dihydro-[1,2,4]triazolo[4,3-a]quinoxalin-9-amine]: the IC50 or EC50 (antagonist or agonist mode, not stated per compound) was 0.1 to 1 µM. The figure for `Cc1c(-c2cccc3c2ccn3S(=O)(=O)CC2CC2)cc(F)c2c1-n1c(C)nnc1C(C)(C)N2` [Example 491, 8-[1-(Cyclopropyl-methylsulfonyl)-1H-indol-4-yl]-6-fluoro-1,4,4,9-tetramethyl-5H-[1,2,4]triazolo[4,3-a]quinoxaline] is below 0.1 µM. `Cc1c(-c2cc(F)cc3c2ccn3CCO)cc(F)c2c1-n1c(C3CC3)nnc1C(C)(C)N2` [Example 65, 2-[4-(1-Cyclopropyl-6-fluoro-4,4,9-trimethyl-5H-[1,2,4]triazolo[4,3-a]quinoxalin-8-yl)-6-fluoro-1H-indol-1-yl]-EtOH]: the IC50 or EC50 (antagonist or agonist mode, not stated per compound) lay within 1 to 15 µM. On to `COc1c(-c2cc(F)cc3[nH]ccc23)cc(F)c2c1-n1c(C)nnc1C(C)(C)N2` [Example 470, 6-Fluoro-8-(6-fluoro-1H-indol-4-yl)-9-methoxy-1,4,4-trimethyl-5H-[1,2,4]triazolo[4,3-a]quinoxaline], for which the IC50 or EC50 (antagonist or agonist mode, not stated per compound) is 0.1 to 1 µM. On to `COc1c(-c2cc(F)cc3c2ccn3S(C)(=O)=O)cc(F)c2c1-n1c(C3CC3)nnc1C(C)(C)N2` [Example 59, 1-Cyclopropyl-6-fluoro-8-(6-fluoro-1-methylsulfonyl-1H-indol-4-yl)-9-methoxy-4,4-dimethyl-5H-[1,2,4]triazolo[4,3-a]quinoxaline], for which the IC50 or EC50 (antagonist or agonist mode, not stated per compound) lay in the range of 1 to 15 µM. The figure for `COc1c(-c2cc(C(F)(F)F)cc3[nH]ccc23)cc(F)c2c1-n1c(C)nnc1C(C)(C)N2` [Example 473, 6-Fluoro-9-methoxy-1,4,4-trimethyl-8-[6-(trifluoromethyl)-1H-indol-4-yl]-5H-[1,2,4]triazolo[4,3-a]quinoxaline] is 0.1 to 1 µM; for `Cc1c(-c2cccc3c(C)c[nH]c23)c(F)c(F)c2c1-n1c(C)nnc1C(C)(C)N2` [Example 513, 6,7-Difluoro-1,4,4,9-tetramethyl-8-(3-methyl-1H-indol-7-yl)-5H-[1,2,4]triazolo[4,3-a]quinoxaline] it is 0.1 to 1 µM. The same measure for `Cc1c(-c2cc(F)cc3c2cnn3S(C)(=O)=O)cc(F)c2c1-n1c(C)nnc1C(C)(C)N2` [Example 340, 6-Fluoro-8-(6-fluoro-1-methylsulfonyl-1H-indazol-4-yl)-1,4,4,9-tetramethyl-5H-[1,2,4]triazolo[4,3-a]quinoxaline]: 0.1 to 1 µM. The same measure for `Cc1c(-c2cccc3c2ccn3S(C)(=O)=O)cc(Cl)c2c1-n1c(C)nnc1C(C)(C)N2` [Example 456, 6-Chloro-1,4,4,9-tetramethyl-8-(1-methylsulfonyl-1H-indol-4-yl)-5H-[1,2,4]triazolo[4,3-a]quinoxaline]: below 0.1 µM. Regarding `Cc1c(-c2cc(F)cc3c2cnn3S(C)(=O)=O)c(F)c(Cl)c2c1-n1c(C)nnc1C(C)(C)N2` [Example 510, 6-Chloro-7-fluoro-8-(6-fluoro-1-methylsulfonyl-1H-indazol-4-yl)-1,4,4,9-tetramethyl-5H-[1,2,4]triazolo[4,3-a]quinoxaline], the IC50 or EC50 (antagonist or agonist mode, not stated per compound) was below 0.1 µM. Regarding `Cc1c(-c2cccc3[nH]ncc23)cc(F)c2c1-n1c(C)nnc1C(C)(C)N2` [Example 504, 6-Fluoro-8-(1H-indazol-4-yl)-1,4,4,9-tetramethyl-5H-[1,2,4]triazolo[4,3-a]quinoxaline], the IC50 or EC50 (antagonist or agonist mode, not stated per compound) lay within 0.1 to 1 µM. The figure for `CNc1c(-c2cc(F)cc3c2ccn3CCO)cc(F)c2c1-n1c(C)nnc1C(C)(C)N2` [Example 480, 2-[6-Fluoro-4-(6-fluoro-1,4,4-trimethyl-9-methylamino-5H-[1,2,4]triazolo[4,3-a]quinoxalin-8-yl)-1H-indol-1-yl]-EtOH] is 0.1 to 1 µM.

These data come from patent publication US11981677B2, “Further substituted triazolo quinoxaline derivatives” (Grünenthal GmbH, priority 2018, dated 2024).
